# Results reported in patent US8492384B2 (Korea Institute of Science and Technology, priority 2008, dated 2013).
# Experiments:
# Format in all cases: cell-based
# [1] = molecular target: T1, α1G T-type calcium channels (Homo sapiens, UniProt O43497); experiment: T-type calcium channel activity using the FDSS6000 (HTS, Fluo-3/AM, KCl-induced intracellular calcium change); conditions: percent inhibition at 10 μM, HEK293 cells stably expressing α1G T-type calcium channels and Kir2.1, KCl 75 mM activation; for inhibition at 10 µM: read-out: FDSS (%, 10 μM)
# T1 construct: host or cells: HEK293
# T1 sequence (O43497 whole entry): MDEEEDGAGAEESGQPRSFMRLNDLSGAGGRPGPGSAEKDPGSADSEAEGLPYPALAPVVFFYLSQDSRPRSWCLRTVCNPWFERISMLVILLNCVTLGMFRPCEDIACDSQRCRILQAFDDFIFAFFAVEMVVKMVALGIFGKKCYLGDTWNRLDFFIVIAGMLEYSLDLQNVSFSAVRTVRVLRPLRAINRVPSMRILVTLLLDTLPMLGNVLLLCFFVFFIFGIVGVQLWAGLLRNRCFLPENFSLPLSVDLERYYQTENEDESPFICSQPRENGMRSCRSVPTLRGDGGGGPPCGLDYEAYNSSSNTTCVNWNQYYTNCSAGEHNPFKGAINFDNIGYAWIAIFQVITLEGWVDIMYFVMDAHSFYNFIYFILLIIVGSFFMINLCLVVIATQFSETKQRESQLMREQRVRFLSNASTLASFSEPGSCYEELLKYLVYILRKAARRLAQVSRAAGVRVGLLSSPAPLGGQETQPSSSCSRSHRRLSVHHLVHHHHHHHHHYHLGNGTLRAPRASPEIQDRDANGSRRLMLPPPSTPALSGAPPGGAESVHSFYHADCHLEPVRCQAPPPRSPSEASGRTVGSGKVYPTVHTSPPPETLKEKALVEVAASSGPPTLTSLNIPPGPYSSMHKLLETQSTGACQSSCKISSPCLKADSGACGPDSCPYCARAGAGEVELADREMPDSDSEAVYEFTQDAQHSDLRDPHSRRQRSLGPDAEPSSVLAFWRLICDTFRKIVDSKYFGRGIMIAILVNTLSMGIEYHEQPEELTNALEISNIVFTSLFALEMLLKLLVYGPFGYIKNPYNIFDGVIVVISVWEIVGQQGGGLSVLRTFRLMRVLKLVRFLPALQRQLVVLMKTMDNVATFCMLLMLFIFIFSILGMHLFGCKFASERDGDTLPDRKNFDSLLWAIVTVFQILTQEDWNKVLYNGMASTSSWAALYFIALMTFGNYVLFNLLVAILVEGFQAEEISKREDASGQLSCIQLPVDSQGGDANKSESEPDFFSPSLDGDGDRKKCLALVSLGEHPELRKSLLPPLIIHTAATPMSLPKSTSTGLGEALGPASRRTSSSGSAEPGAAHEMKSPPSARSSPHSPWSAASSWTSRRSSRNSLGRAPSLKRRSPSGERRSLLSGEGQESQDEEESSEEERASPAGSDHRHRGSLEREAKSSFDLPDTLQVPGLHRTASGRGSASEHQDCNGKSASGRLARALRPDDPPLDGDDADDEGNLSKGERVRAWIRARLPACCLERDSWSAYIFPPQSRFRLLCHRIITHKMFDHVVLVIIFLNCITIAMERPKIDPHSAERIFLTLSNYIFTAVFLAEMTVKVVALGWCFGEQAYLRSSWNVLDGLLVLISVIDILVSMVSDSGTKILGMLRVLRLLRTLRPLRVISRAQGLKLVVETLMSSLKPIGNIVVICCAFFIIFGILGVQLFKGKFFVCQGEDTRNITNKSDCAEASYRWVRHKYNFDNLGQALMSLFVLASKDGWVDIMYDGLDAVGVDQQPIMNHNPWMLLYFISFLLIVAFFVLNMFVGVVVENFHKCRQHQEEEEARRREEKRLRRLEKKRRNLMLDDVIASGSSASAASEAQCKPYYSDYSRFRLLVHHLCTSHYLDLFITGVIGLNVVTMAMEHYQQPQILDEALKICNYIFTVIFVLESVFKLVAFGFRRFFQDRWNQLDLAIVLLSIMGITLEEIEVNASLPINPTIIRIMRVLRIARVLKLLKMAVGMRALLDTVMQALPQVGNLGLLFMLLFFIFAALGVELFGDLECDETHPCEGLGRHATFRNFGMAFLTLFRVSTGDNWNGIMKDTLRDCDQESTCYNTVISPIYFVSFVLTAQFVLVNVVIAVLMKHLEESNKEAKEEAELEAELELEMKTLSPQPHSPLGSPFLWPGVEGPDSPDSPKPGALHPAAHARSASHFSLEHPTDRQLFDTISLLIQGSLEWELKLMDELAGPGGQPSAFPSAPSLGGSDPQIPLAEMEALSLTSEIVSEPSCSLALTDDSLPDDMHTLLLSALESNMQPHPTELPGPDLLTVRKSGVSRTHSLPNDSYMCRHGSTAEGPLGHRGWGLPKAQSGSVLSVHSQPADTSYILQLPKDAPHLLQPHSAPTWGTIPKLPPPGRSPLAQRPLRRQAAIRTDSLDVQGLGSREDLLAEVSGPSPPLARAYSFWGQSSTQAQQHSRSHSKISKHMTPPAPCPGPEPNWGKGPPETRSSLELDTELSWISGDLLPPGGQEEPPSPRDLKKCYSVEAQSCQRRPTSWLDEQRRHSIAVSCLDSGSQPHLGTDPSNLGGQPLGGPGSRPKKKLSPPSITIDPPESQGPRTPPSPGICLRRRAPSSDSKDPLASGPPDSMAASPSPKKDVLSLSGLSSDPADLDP
# Experimental: (§1) The novel compounds of the present invention presented as the formula 1 were tested for their antagonistic activities against T-type calcium channels using the methods described below. More specifically, the synthesized compounds were screened as follows: First, as a primary screening, the compounds having 40% or higher of antagonistic activities against T-type calcium channels were selected using the FDSS6000, a high throughput screening (HTS) device. Then, as a secondary screening, the IC50 (effective inhibitory concentration) values were obtained using the electrophysiological methods.
# 1) Methods for the Measurements of T-Type Calcium Channel Activity Using the FDSS6000
# 12 to 24 hours prior to the FDSS-based HTS assay, HEK293 cells stably expressing both α1G T-type calcium channels and Kir2.1 channels (α1G cell line: KCTC 10519BP, KRIBB (Korea Research Institute of Bioscience and Biotechnology) (GENE BANK) were seeded onto the 96-well plate coated with poly-L-lysine (0.05 mg/mL) at a density of 4×10^4 cells/well using a cell distributor (Titertek, USA). On the following day, the cells attached onto the 96-well plate were washed three times with a HEPES-buffered solution (150 mM NaCl, 5 mM KCl, 1 mM MgCl2, 2 mM CaCl2, 10 mM HEPES, 10 mM glucose, and pH 7.4) using an automatic 96-well plate washer (BioTek, USA), and then labeled with a fluorescent calcium indicator dye, Fluo-3/AM (5 μM) and 0.001% Pluronic F-127 in a HEPES-buffered solution at room temperature for 1 hour and then washed again with a HEPES-buffered solution twice. 10 minutes prior to the FDSS6000 measurements, the cells was washed with a HEPES-buffered solution containing 10 mM CaCl2 once and the final volume was adjusted.
# In addition to the 96-well plates with cells, the two drug plates were prepared: one containing KCl (final concentration of 75 mM) for the activation of T-type calcium channels, and the other containing testing compounds (blocking agents of T-type calcium channels). Since most cell-based HTS devices are provided with a liquid application system for drug injection but not with a liquid absorption system, the KCl solution and the blocking agents for screening were prepared at concentrations five times higher than the final concentrations in the 10 mM CaCl2 HEPES-buffered solution, and then diluted in the cell plate, and the activities were measured. The specific method of the FDSS6000 measurements is as follows: For the FDSS6000 measurements, after the 20-sec baseline recordings, cells were preincubated with drugs for 75 seconds and the change in intracellular calcium concentration induced by KCl was measured. The percent inhibition by a test compound was calculated as integrated values of 340/380 fluorescent ratio of untreated and drug-treated cells. The control drug was 10 μM of Mibefradil®.
# In details, cells were selectively exposed to 340 nm and 380 nm light excited by 4 xenon lamps installed in FDSS6000 using a computer-controlled filter wheel. The emitter fluorescence light through a 515 nm long-pass filter was passed by a freezing digital CCD camera mounted on the device. Data were collected every 1.23 seconds, and an average value of 340/380 fluorescent ratio for each well was obtained using a digital fluorescent analyzer. Data acquisition and analysis were performed using a program provided by Hamamatsu Photonics.
# [2] = molecular target: T1, α1G T-type calcium channels; experiment: T-type calcium channel activity using electrophysiological whole-cell patch-clamp technique; conditions: percent inhibition of inward peak currents, HEK293 cells expressing α1G, head prints 100 μM
# [3] = molecular target: T1, α1G T-type calcium channels; experiment: as above; conditions: HEK293 cells expressing α1G T-type calcium channels
# Experimental: as §1
# 2) Methods for the Measurements of T-Type Calcium Channel Activity Using an Electrophysiological Whole-Cell Patch-Clamp Technique
# HEK293 cells stably expressing T-type calcium channels were cultured in DMEM (Dulbecco's modified Eagle's medium) containing 10% (v/v) fetal bovine serum and 1% penicillin/streptomycin (v/v) in humidified 5% CO2 at 36.5° C. Cells expressing α1GT-type calcium channels were selected using G-418 (0.5 mg/mL) in the culture medium. The culture medium was replaced with a fresh one every 3-4 days, and cells were subcultured every week.
# Cells were seeded onto the coverglass coated with poly-L-lysine (0.5 mg/mL) for the measurements of T-type calcium channel activity 2-7 days prior to the recordings. Whole-cell recordings of T-type calcium channel currents were performed using an EPC-9 patch clamp amplifier (HEKA, Germany). Whole-cell currents were recorded using micropipettes with resistance of 3-4 MΩ with the pipette (intracellular) solution containing (in mM): 130 KCl, 11 EGTA, 5 Mg-ATP, and 10 HEPES, pH to 7.4 and with the bath (extracellular) solution containing (in mM): 140 NaCl, 2 CaCl2, and 10 HEPES, pH to 7.4. The inward currents of T-type calcium channels were evoked by the test pulses of −30 mV for 50 ms at a holding potential of −100 mV every 10 seconds.
# Each compound was dissolved in dimethylsulfoxide (DMSO) as 10 mM stock solutions and diluted in the bath solution to 10 μM (containing 0.1% DMSO). […] More specifically, each compound was perfused to the bath for about 30-60 seconds, and the inhibition of the inward peak currents by a test compound was calculated as a percent inhibition from which the IC50 values were determined.
inhibition at 10 µM [1] [%],Molecule,further results
60.8,O=C(CCn1ccnc1-c1ccccc1)NCCN1CCN(C(c2ccccc2)c2ccccc2)CC1,inhibition at 100 µM [2]: 29.1 ± 1.7%; IC50 [3]: 18 ± 0.92 µM
,1-N-[4-(4-chlorophenyl)(phenyl)methylpiperazin-1-yl]carbonylethyl-2-methylimidazole [Compound No. 46],"FDSS (%, 10 μM) [1]: 51.94%; HEK293 (%, 100 μM) [2]: 67.6 ± 1.3%; IC50 [3]: 4.97 ± 0.18 µM"
,"1-N-{2-[4-(2,3-dimethylphenyl)(phenyl)methylpiperazin-1-yl]ethyl}carbamoylethyl-4-phenylimidazole [Compound No. 56]","FDSS (%, 10 μM) [1]: 35.38%"
,1-N-{2-[4-(4-chlorophenyl) (phenyl)methylpiperazin-1-yl]ethyl}carbamoylethyl-2-methylimidazole [Compound No. 93],"FDSS (%, 10 μM) [1]: 43.04%; IC50 [3]: 9.55 ± 8.7 µM"
,1-N-{2-[4-(4-chlorophenyl) (phenyl)methylpiperazin-1-yl]ethyl}carbamoylethyl-4-methylimidazole [Compound No. 94],"FDSS (%, 10 μM) [1]: 55.99%; IC50 [3]: 6.77 ± 1.45 µM"
33.5,"O=C(CCn1cnc(-c2ccccc2)c1)N1CCN(Cc2ccccc2)CC1 [Compound No. 2, 1-N-(4-benzylpiperazin-1-yl)carbonylethyl-4-phenylimidazole]",
34.4,"Cc1cccc(N2CCN(C(=O)CCn3ccnc3-c3ccccc3)CC2)c1C [Compound No. 15, 1-N-[4-(2,3-dimethylphenyl)piperazin-1-yl]carbonylethyl-2-phenylimidazole]",
34.3,"Cc1ccc(N2CCN(C(=O)CCn3ccnc3-c3ccccc3)CC2)c(C)c1 [Compound No. 16, 1-N-[4-(2,4-dimethylphenyl)piperazin-1-yl]carbonylethyl-2-phenylimidazole]",
36.8,"O=C(CCn1ccnc1-c1ccccc1)N1CCN(Cc2ccc(F)cc2)CC1 [Compound No. 21, 1-N-[4-(4-fluorobenzyl)piperazin-1-yl]carbonylethyl-2-phenylimidazole]",
23.4,"CCN1CCN(C(=O)CCn2ccnc2-c2ccccc2)CC1 [Compound No. 23, 1-N-(4-ethylpiperazin-1-yl)carbonylethyl-2-phenylimidazole]",
35.1,"O=C(CCn1ccnc1-c1ccccc1)N1CCN(c2cccc(Cl)c2)CC1 [Compound No. 26, 1-N-[4-(3-chlorophenyl)piperazin-1-yl]carbonylethyl-2-phenylimidazole]",
37.8,"COc1ccc(N2CCN(C(=O)CCn3cnc(-c4ccccc4)c3)CC2)cc1 [Compound No. 27, 1-N-[4-(4-methoxyphenyl)piperazin-1-yl]carbonylethyl-4-phenylimidazole]",
35,"Cc1nccn1CCC(=O)N1CCN(C(c2ccccc2)c2ccccc2)CC1 [Compound No. 35, 1-N-(4-diphenylmethylpiperazin-1-yl)carbonylethyl-2-methylimidazole]",
33.8,"Cc1ccc(N2CCN(C(=O)CCn3cnc(C)c3)CC2)c(C)c1 [Compound No. 38, 1-N-[4-(2,4-dimethylphenyl)piperazin-1-yl]carbonylethyl-4-methylimidazole]",
42.2,"O=C(CCn1cnc(-c2ccccc2)c1)N1CCN(c2ccccc2)CC1 [Compound No. 53, 1-N-(4-phenylpiperazin-1-yl)carbonylethyl-4-phenylimidazole]",IC50 [3]: 0.00046 µM
24.2,"O=C(CCn1ccnc1-c1ccccc1)N1CCN(c2ccccc2)CC1 [Compound No. 54, 1-N-(4-phenylpiperazin-1-yl)carbonylethyl-2-phenylimidazole]",
44.9,"Cc1ccc(N2CCN(CCNC(=O)CCn3cnc(-c4ccccc4)c3)CC2)c(C)c1 [Compound No. 61, 1-N-{2-[4-(2,4-dimethylphenyl)piperazin-1-yl]ethyl}carbamoylethyl-4-phenylimidazole]",
40.5,"Cc1ccc(N2CCN(CCNC(=O)CCn3ccnc3-c3ccccc3)CC2)c(C)c1 [Compound No. 62, 1-N-{2-[4-(2,4-dimethylphenyl)piperazin-1-yl]ethyl}carbamoylethyl-2-phenylimidazole]",
39.2,"Cc1cccc(CN2CCN(CCNC(=O)CCn3cnc(-c4ccccc4)c3)CC2)c1 [Compound No. 67, 1-N-{2-[4-(3-methylbenzyl)piperazin-1-yl]ethyl}carbamoylethyl-4-phenylimidazole]",
31.1,"Cc1cccc(CN2CCN(CCNC(=O)CCn3ccnc3-c3ccccc3)CC2)c1 [Compound No. 68, 1-N-{2-[4-(3-methylbenzyl)piperazin-1-yl]ethyl}carbamoylethyl-2-phenylimidazole]",
36.7,"O=C(CCn1cnc(-c2ccccc2)c1)NCCN1CCN(Cc2ccc(F)cc2)CC1 [Compound No. 70, 1-N-{2-[4-(4-fluorobenzyl)piperazin-1-yl]ethyl}carbamoylethyl-4-phenylimidazole]",
30.7,"O=C(CCn1cnc(-c2ccccc2)c1)NCCN1CCN(c2ccccc2)CC1 [Compound No. 71, 1-N-[2-(4-phenylpiperazin-1-yl)ethyl]carbamoylethyl-4-phenylimidazole]",
41.7,"O=C(CCn1cnc(-c2ccccc2)c1)NCCN1CCN(c2ccc(F)cc2)CC1 [Compound No. 73, 1-N-{2-[4-(4-fluorophenyl)piperazin-1-yl]ethyl}carbamoylethyl-4-phenylimidazole]",
33,"COc1ccc(N2CCN(CCNC(=O)CCn3cnc(-c4ccccc4)c3)CC2)cc1 [Compound No. 75, 1-N-{2-[4-(4-methoxyphenyl)piperazin-1-yl]ethyl}carbamoylethyl-4-phenylimidazole]",
36.9,"O=C(CCn1cnc(-c2ccccc2)c1)NCCN1CCN(c2cccc(Cl)c2)CC1 [Compound No. 79, 1-N-{2-[4-(3-chlorophenyl)piperazin-1-yl]ethyl}carbamoylethyl-4-phenylimidazole]",
41.4,"Cc1nccn1CCC(=O)NCCN1CCN(C(c2ccccc2)c2ccccc2)CC1 [Compound No. 96, 1-N-[2-(4-diphenylmethylpiperazin-1-yl)ethyl]carbamoylethyl-2-methylimidazole]",IC50 [3]: 0.39 ± 0.28 µM
33.8,"COc1ccc(CN2CCN(CCNC(=O)CCn3ccnc3C)CC2)cc1 [Compound No. 98, 1-N-{2-[4-(4-methoxybenzyl)piperazin-1-yl]ethyl}carbamoylethyl-2-methylimidazole]",
